# Source: PMC10313368 (The Journal of Clinical Investigation, 2023)
# Values joined by “and” are separate entries in the source; they are usually repeats but may differ in a detail not shown here. Equal values may be shown once. Residues, ends and D or L forms follow the SMILES beside them. *: point of attachment. Cbz = O=C(OCc1ccccc1)*
# Key:
# HIF-1α = HIF-1α (Homo sapiens, UniProt Q16665); test: Immunoblot of HIF-1α accumulation in MIO-M1 cells cultured in hypoxia; type: cell-based; design: endogenous in cells; host or cells: MIO-M1; conditions: MIO-M1, hypoxia 4 hours; MG-132 10 μM, bortezomib 10 μM, bafilomycin 10 nM
# Procedure: (§1) MIO-M1, HUVECs, and ARPE19 cells were cultured in DMEM with 10% (vol/vol) FBS (Quality Biological) and 1% penicillin/streptomycin (Cellgro). A hypoxic chamber (Coy Laboratory Product Inc.; Two Glove Model) with 5% CO2, 94% N2, and 1% O2 gas concentration at 37°C was used to culture hypoxic cells. The control cells were cultured in an incubator maintained at 37°C, with 21% O2 and 5% CO2. […] Aflibercept was obtained from the Johns Hopkins University Pharmacy.
# (§2) Immunoblot assays. Cells, neurosensory retina, and D120 retinal organoid lysates were subjected
# (§3) to 4–15% gradient SDS/PAGE (Invitrogen). Immunoblot (Western blot or WB) assays were
# (§4) performed as previously described (1). […]
# HIF-2α = HIF-2α (Homo sapiens, UniProt Q99814); test: Immunoblot of HIF-2α accumulation in MIO-M1 cells cultured in hypoxia; type: cell-based; design: endogenous in cells; host or cells: MIO-M1; conditions: MIO-M1, hypoxia 4 hours; MG-132
# Procedure: as §1, §2, §3, §4
# [1] = tested on: HIF-regulated angiogenic mediators; test: mRNA expression of HIF-regulated vasoactive mediators in OIR mouse retina (qPCR); type: in vivo
# Procedure: (§5) Reverse transcription and quantitative real-time PCR. Total RNA was isolated from cultured cells or retinas with PureLinkTM RNA Mini Kit (Invitrogen #12183025), and cDNA was prepared with MuLV Reverse Transcriptase (Applied Biosystems). Quantitative real-time PCR was performed with Power SYBR Green PCR Master Mix (Applied Biosystems) and MyiQ Real-Time PCR Detection System (Bio-Rad). Normalization was done using cyclophilin A for mouse tissue and human cell lines. Primers are listed in Supplemental Table 2. […]
# (§6) Animal studies. Eight-week-old pathogen-free female C57BL/6 mice were obtained from The Jackson Laboratory (JAX). Timed pregnant C57BL/6 mice were obtained from Charles River Laboratories. Mice heterozygous for HIF-1α have been previously described (2). Mice heterozygous for HIF-2α (strain number: 003266; common name: EPAS1 KO) were purchased […]
# (§7) OIR mouse model. OIR experiments were performed as previously described (1, 3). Briefly, C57BL/6 mice were placed in 75% O2 on P7. On P12, the mice were returned to room air and were […]
# (§8) (or vehicle) by intravitreal injection. Mice with body weight less than 6 g at P17 were excluded […]
# (§9) from analysis. Data were collected from both males and females and the results were combined since there was no apparent difference between sexes. Representative images for selected time points from a minimum of three independent experiments are shown. Data from 3-8 pups were obtained at each time point. […]
# (§10) Intraperitoneal (IP) injections. […]
# (§11) intraperitoneally using an insulin syringe in OIR pups. […]
# (§12) the peritoneal cavity of neonatal C57BL/6 mice and STZ mice at indicated times, and the retinal vasculature and lysates for WB and qPCR were assessed at P17.
# (§13) Intraocular injections. Intravitreal injections were performed with a PLI-100A Pico-liter Microinjector (Warner Instruments, Harvard Bioscience) using pulled-glass micropipettes. Each micropipette was calibrated to deliver a 1 μl volume on depression of a foot switch. The mice were anesthetized with a ketamine (100 mg/kg) and xylazine (5mg/kg) mixture, and under a dissecting microscope, the sharpened tip of the micropipette was passed through the sclera just posterior to the limbus into the vitreous cavity and the foot switch was depressed, which caused fluid to […]
# [2] = tested on: STZ-induced diabetic mice; test: Vascular permeability by Evans blue tracer method in STZ mice; type: in vivo, mouse; conditions: digoxin treatment, mice hyperglycemic for 6 months
# Procedure: (§14) STZ-induced diabetes mouse model. 8-to-10 week-old male mice received an IP injection of STZ at 40 mg/kg of body weight in 0.1M of citrate buffer (pH 4.5) for 5 consecutive days. Normal chow and 10% sucrose water were provided during this period. 10% sucrose was discontinued and replaced with regular water on experimental day 6. […]
# Intraocular injections. Intravitreal injections were performed with a PLI-100A Pico-liter Microinjector (Warner Instruments, Harvard Bioscience) using pulled-glass micropipettes. Each micropipette was calibrated to deliver a 1 μl volume on depression of a foot switch. […]
# Images were captured with Zeiss fluorescent microscope. Eight fields per eye (2 fields per petal) including area of neovascularization were selected and fluorescence intensity was measured by ImageJ software. […]
# The eyes were enucleated and immediately immersed in 4% (wt/vol) paraformaldehyde for 2 hours at room temperature. […] Images were captured by Zeiss fluorescent microscope or confocal microscopy and fluorescence was quantified by the image J software (National Institutes […]
# of Health, Bethesda, MD). Blinded quantification of the number of leaking vessels was performed by manual counting of major leakage from capillaries from retinas of each group. […] Random fields were chosen from retinas where leakages were absent to determine baseline fluorescence that arise from capillaries. […]
# [3] = tested on: HIF-regulated vasoactive mediators; test: mRNA expression of HIF-regulated vasoactive mediators in retina of STZ-induced diabetic mice (qPCR); type: in vivo, mouse
# Procedure: as §5
# as §14, with “6. Blood glucose was measured on experimental day 28 after 16 hours fasting and mice with blood glucose level > 250 mg/dL were considered” for “6.”
# as §10
# OIR mice = test: Retinal NV in the oxygen-induced retinopathy (OIR) mouse model; type: in vivo; conditions: for OIR NV%: Figure 14D
# Description: To characterize the contribution of these other HIF-regulated angiogenic factors to the promotion of ischemia-driven retinal NV in vivo, we used the classic oxygen-induced retinopathy (OIR) model characterized by Smith and colleagues ([35]). In stage 1 of this model, P7 pups are exposed to hyperoxia (75% O2) for 5 consecutive days (P7–P12), resulting in obliteration of the posterior retinal vasculature. In stage 2, pups (at P12) are returned to room air (21% O2). The resulting relative ischemia promotes the expression of angiogenic mediators that stimulate the development of retinal NV (peaking at P17; Figure 2A). […]
# as §6, §7, §8, §9, §10, §11, §12, §13
# penetrate into the vitreous space. […]
# mice for vascular permeability test, retinal vasculature, and lysates for WB and qPCR analysis.
# Immunoﬂuorescence assays. Details for antibodies are provided in Supplemental Table 1.
# Immunofluorescence assays in retinal organoids and mouse retinal tissues were performed as previously described (4). Briefly, mice were sacrificed using CO2 asphyxiation, and the eyes were enucleated and fixed with a solution of 4% paraformaldehyde in PBS (Thermo Scientific™) for two hours at RT, followed by washing with PBS for 10 minutes in a shaker. Retinas were isolated and incubated in 0.5% BSA solution overnight at 4 °C. Retinas were then washed with PBS 3 times for 10 minutes in the shaker and stained with isolectin B4 (Invitrogen; 1:200 dilution in PBS) overnight at 4 °C. After washing 3 times for 10 minutes each in the shaker, the retinas were mounted. Images were captured with Zeiss fluorescent microscope. Eight fields per eye (2 fields per petal) including area of neovascularization were selected and fluorescence intensity was measured by ImageJ software. […]
# The eyes were enucleated and immediately immersed in 4% (wt/vol) paraformaldehyde for 2 hours at room temperature. Retinas were isolated and wholemounts prepared on clean glass slides and mounted vitreous side up under coverslips with antifade medium (Vectashield; Vector Laboratories, Burlingame, CA). Images were captured by Zeiss fluorescent microscope or confocal microscopy and fluorescence was quantified by the image J software (National Institutes
# [4] = OIR mice P17, Digoxin i.p. 2mg/kg at P12, NON-OIR about 1, replicates, Figure 2C, 2 mg/kg
# [5] = digoxin 2 mg/kg i.p. at P12, P17
# [6] = STZ mice + Digoxin, control about 1, replicates, Figure 4F
# Sequence of HIF-1α (Q16665 whole entry): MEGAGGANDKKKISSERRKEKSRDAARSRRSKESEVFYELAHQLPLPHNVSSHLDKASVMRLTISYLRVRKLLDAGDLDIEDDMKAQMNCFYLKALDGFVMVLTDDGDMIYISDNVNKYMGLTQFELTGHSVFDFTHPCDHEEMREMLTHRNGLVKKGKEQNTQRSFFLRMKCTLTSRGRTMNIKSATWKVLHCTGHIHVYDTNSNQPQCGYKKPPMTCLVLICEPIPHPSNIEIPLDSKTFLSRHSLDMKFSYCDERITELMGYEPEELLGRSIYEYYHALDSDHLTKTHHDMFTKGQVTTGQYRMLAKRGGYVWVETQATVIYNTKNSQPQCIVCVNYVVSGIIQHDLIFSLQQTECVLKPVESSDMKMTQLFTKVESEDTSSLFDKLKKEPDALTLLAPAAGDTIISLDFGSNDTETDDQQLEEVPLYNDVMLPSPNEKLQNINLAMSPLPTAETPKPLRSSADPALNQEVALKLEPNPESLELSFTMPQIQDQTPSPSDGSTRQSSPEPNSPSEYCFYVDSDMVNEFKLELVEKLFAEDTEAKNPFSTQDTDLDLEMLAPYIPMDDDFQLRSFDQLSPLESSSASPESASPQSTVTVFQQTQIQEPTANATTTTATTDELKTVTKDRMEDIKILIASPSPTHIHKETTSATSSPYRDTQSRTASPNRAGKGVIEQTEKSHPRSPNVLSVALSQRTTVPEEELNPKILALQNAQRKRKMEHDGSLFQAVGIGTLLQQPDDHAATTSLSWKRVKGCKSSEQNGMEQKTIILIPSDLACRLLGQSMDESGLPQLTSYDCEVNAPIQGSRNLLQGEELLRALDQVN
# Sequence of HIF-2α (Q99814 whole entry): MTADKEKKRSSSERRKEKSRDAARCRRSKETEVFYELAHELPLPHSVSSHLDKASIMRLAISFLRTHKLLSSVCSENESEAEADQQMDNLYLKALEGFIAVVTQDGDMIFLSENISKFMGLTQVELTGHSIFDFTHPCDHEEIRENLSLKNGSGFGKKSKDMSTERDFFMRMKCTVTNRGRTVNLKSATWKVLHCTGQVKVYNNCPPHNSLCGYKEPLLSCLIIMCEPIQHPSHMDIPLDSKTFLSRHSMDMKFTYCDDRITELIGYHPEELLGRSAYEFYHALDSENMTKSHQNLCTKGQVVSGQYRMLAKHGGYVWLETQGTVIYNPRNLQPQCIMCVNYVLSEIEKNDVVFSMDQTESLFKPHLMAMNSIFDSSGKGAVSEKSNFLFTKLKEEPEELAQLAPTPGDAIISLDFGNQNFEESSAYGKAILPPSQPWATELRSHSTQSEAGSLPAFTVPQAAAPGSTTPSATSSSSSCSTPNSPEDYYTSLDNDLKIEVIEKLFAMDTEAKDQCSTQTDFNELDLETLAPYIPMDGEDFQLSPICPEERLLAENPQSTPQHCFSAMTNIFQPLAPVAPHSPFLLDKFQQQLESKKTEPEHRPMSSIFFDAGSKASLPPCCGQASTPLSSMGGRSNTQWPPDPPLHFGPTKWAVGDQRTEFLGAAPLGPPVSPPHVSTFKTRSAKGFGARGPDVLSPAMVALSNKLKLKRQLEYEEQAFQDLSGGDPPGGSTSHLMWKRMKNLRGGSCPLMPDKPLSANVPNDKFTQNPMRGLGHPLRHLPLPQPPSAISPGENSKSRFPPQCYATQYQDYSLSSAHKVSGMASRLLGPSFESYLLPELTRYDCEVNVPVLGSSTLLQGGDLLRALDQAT
compound,measurement,setting,value
"CC(C)C[C@@H](C=O)NC(=O)[C@H](CC(C)C)NC(=O)[C@H](CC(C)C)NC(=O)OCc1ccccc1 [MG-132, reference compound] (Cbz-Leu-Leu-Leu-aldehyde)",effect of pretreatment on 32-134D inhibition of HIF-1α accumulation,HIF-1α,prevented the ability of 32-134D to block HIF-1α and HIF-2α protein accumulation
same,effect of pretreatment on 32-134D inhibition of HIF-2α accumulation,HIF-2α,prevented the ability of 32-134D to block HIF-1α and HIF-2α protein accumulation
"CO/C1=C\C(C)=C\[C@@H](C)[C@@H](O)[C@@H](C)C/C(C)=C/C=C/[C@H](OC)[C@@H]([C@@H](C)[C@@H](O)[C@H](C)[C@@]2(O)C[C@@H](O)[C@H](C)[C@@H](C(C)C)O2)OC1=O [bafilomycin, reference compound]",effect of pretreatment on 32-134D inhibition of HIF-1α accumulation,HIF-1α,did not prevent 32-134D from inhibiting HIF-1α accumulation
"CC(C)C[C@H](NC(=O)[C@H](Cc1ccccc1)NC(=O)c1cnccn1)B(O)O [bortezomib, reference compound]",effect of pretreatment on 32-134D inhibition of HIF-1α accumulation,HIF-1α,corroborated
"C[C@H]1O[C@@H](O[C@H]2[C@@H](O)C[C@H](O[C@H]3[C@@H](O)C[C@H](O[C@H]4CC[C@@]5(C)[C@H](CC[C@@H]6[C@@H]5C[C@@H](O)[C@]5(C)[C@@H](C7=CC(=O)OC7)CC[C@]65O)C4)O[C@@H]3C)O[C@@H]2C)C[C@H](O)[C@@H]1O [digoxin, reference compound]",Vegfa mRNA,"[1]; OIR mice P17, Digoxin i.p. 2mg/kg at P12, NON-OIR about 1, replicates, Figure 2B, 2 mg/kg",4.361 and 3.814 and 4.0024
same,Angpt2 mRNA,[1]; [4],1.359 and 1.263 and 1.386
same,Angptl4 mRNA,[1]; [4],1.389 and 1.31 and 1.599
same,Pdgfb mRNA,[1]; [4],3.611 and 3.067 and 2.999
same,Ptprb mRNA,[1]; [4],0.8633 and 0.7662 and 0.7639
same,Serpine1 mRNA,[1]; [4],13.6912 and 13.3012 and 10.8019
same,expression of VEGF in OIR mice (in words),[1]; [5],only modestly inhibiting the expression of VEGF
same,expression of other vasoactive genes in OIR mice (in words),[1]; [5],modest reduction
same,vascular permeability in STZ mice (in words),[2],decreased vascular permeability
same,Angptl4 mRNA,[3]; [6],0.6214 and 1.778 and 1.462
same,Vegfa mRNA,[3]; [6],0.79 and 0.8827 and 0.5987
same,Vegf and Angptl4 mRNA expression in STZ mice (in words),[3]; digoxin treatment,decrease in Vegf and Angptl4 mRNA expression to levels similar to those in nondiabetic mice
same,neovascular area (%),"OIR mice; OIR mice at P17, single i.p. digoxin 2 mg/kg at P12, individual values, Figure 2A",0.786% and 0.8973% and 1.637% and 0.108% and 0.7093% and 1.719%
same,retinal NV in the OIR model (in words),"OIR mice; digoxin 2 mg/kg single i.p. at P12, read at P17",prevented retinal NV
aflibercept: FDA-approved anti-VEGF therapy for DME and PDR [reference compound],OIR NV%,"OIR mice; 100ng i.v., individual values",10.6252% and 10.4463% and 8.931% and 10.009% and 8.751% and 10.316%
same,OIR NV%,"OIR mice; 200ng i.v., individual values",6.75% and 9.52% and 8.9161% and 6.123% and 11.2235% and 10.084%
same,OIR NV%,"OIR mice; 400ng i.v., individual values",2.501% and 5.995% and 9.1174% and 1.799% and 6.421% and 2.903%
